This passage reports IC50 results from ChEMBL document CHEMBL6074679, “Diastereoselective synthesis and biological evaluation of new fluorine-containing α-aminophosphonates as anticancer agents and scaffold to human urokinase plasminogen activator inhibitors” (Eur J Med Chem, 2025).

Data set [1] has as its target Urokinase-type plasminogen activator (Homo sapiens, UniProt P00749). Kind of data set: Inhibition of human urokinase uPA using Z-Gly-Gly-Arg-AMC as substrate by fluorescence plate reader assay.
Data set [2] relates to U-251. Put plainly: Cytotoxicity against human U-251MG cells incubated for 48 hrs by MTT assay. The format is functional, cell-based. The conditions noted are these: U-251, 48 h. A general note: Tetrazolium dyes change colour on reduction, which living cells bring about.
The subject of data set [3] is A549. Kind of data set: Cytotoxicity against human A549 cells incubated for 48 hrs by MTT assay. The format is functional, cell-based. The note with it: A549, 48 h.
The subject of data set [4] is HepG2. Put plainly: Cytotoxicity against human HepG2 cells incubated for 48 hrs by MTT assay. The conditions noted are these: HepG2, 48 h. The format is functional, cell-based.
The test system of data set [5] is OVCAR-3. Put plainly: Cytotoxicity against human OVCAR-3 cells incubated for 48 hrs by MTT assay. The class given is functional, cell-based. The conditions noted are these: OVCAR-3, 48 h.
For data set [6], the system named is MDA-MB-231. Kind of data set: Cytotoxicity against human MDA-MB-231 cells incubated for 48 hrs by MTT assay. The format is functional, cell-based. The note with it: MDA-MB-231, 48 h.
Data set [7] concerns HeLa. Kind of data set: Cytotoxicity against human HeLa cells incubated for 48 hrs by MTT assay. The class given is functional, cell-based.
The nature of data set [8]: Cytotoxicity against human MRC5 cells incubated for 48 hrs by MTT assay. The format is toxicity, cell-based.
The subject of data set [9] is SK-OV-3. Put plainly: Cytotoxicity against human SK-OV-3 cells incubated for 48 hrs by MTT assay. The class given is functional, cell-based. The note with it: SK-OV-3, 48 h.
For data set [10], the system named is U-118-MG. Kind of data set: Cytotoxicity against human U-118 MG cells incubated for 48 hrs by MTT assay. The class given is functional, cell-based.
Data set [11] relates to U-87 MG. Kind of data set: Cytotoxicity against human U-87 MG cells incubated for 48 hrs by MTT assay. The format is functional, cell-based, U-87MG ATCC.
For data set [12], the system named is Caco-2. Put plainly: Cytotoxicity against human Caco-2 cells incubated for 48 hrs by MTT assay. The class given is functional, cell-based. The note with it: Caco-2, 48 h.

The term IC50 denotes the concentration that gives 50% inhibition. The low end stands for greater potency, the high end for weaker potency. `COP(=O)(OC)C(N[C@@H](C)C(C)(C)C)c1ccc(F)cc1` (some centres not stated): the IC50 turned out to be 516 µM in data set [1]; 21 µM in [2]; 9.82 µM in data set [3]; 6.73 µM in [4]; 81.6 µM in data set [5]; 190 µM in data set [6]. Besides, the IC50 in data set [7] turned out to be 6.07 µM; in data set [9], 6.77 µM; in data set [10], 38.3 µM; in data set [11], 36.3 µM; in data set [12] it was 18.5 µM. The IC50 at 48 h in data set [8] was found to be 110 µM.

`COP(=O)(OC)C(N[C@@H](C)C(C)(C)C)c1c(F)cc(F)cc1F` (some centres not stated): the IC50 was 720 µM in data set [1]; 144 µM in data set [2]; 48.6 µM in data set [3]; 92.1 µM in [4]; 13.7 µM in data set [5]; 83 µM in data set [6]. Also, the IC50 in [7] is 4.14 µM; in data set [9] it was 7.08 µM; in data set [10], 122 µM; in data set [11], 61.1 µM; in [12], 72.3 µM. 15 µM corresponded to half-maximal inhibition in [8] (IC50 at 48 h).

Consider `COc1ccc([C@@H](C)NC(c2c(F)c(F)c(F)c(F)c2F)P(=O)(OC)OC)cc1` (some centres not stated), for which the IC50 in data set [1] was determined as 357 µM; in data set [2], 53.1 µM; in data set [3], 75.1 µM; in data set [4] it was 35.5 µM; in [5] it was 13.7 µM; in [6], 79.2 µM. Moreover, the IC50 in data set [7] was found to be 52.4 µM; in [9], 4.36 µM; in data set [10] it was 31.4 µM; in [11], 45.1 µM; in [12], 6.93 µM. The molecule also came in with an IC50 at 48 h in data set [8] of 2.17 µM.

With `CCOP(=O)(OCC)C(N[C@H](C)c1ccc(OC)cc1)c1c(F)c(F)c(F)c(F)c1F` (some centres not stated), the IC50 in data set [1] was 416 µM; in data set [2], 78.9 µM; in [3], 44.6 µM; in [4] it was 45.3 µM; in [5], more than 500 µM; in data set [6], 19.1 µM. Also, the IC50 in data set [7] was determined as 3.92 µM; in data set [9], 5.37 µM; in [10] it was 14.4 µM; in [11] it was 9.34 µM; in data set [12], 1.74 µM. The molecule further showed an IC50 at 48 h in data set [8] of 27.2 µM.

Take `CCOP(=O)(OCC)C(N[C@@H](C)C(C)(C)C)c1c(F)cc(F)cc1F` (some centres not stated): the IC50 amounted to 671 µM in data set [1]; 7.57 µM in data set [2]; 33.3 µM in [3]; 46.7 µM in data set [4]; 55.1 µM in data set [5]; 39.3 µM in data set [6]. Besides, the IC50 in data set [7] was 10.6 µM; in data set [9], 16.6 µM; in data set [10], 40.7 µM; in data set [11] it was 11.5 µM; in data set [12], 0.39 µM. Further, the IC50 at 48 h in data set [8] worked out at 36.5 µM.

For `COc1ccc([C@@H](C)NC(c2ccc(F)cc2F)P(=O)(OC(C)C)OC(C)C)cc1` (some centres not stated), the IC50 in data set [1] turned out to be 620 µM; in [2], 3.51 µM; in [3], 2.87 µM; in data set [4], 46.2 µM; in [5], 3.57 µM; in data set [6] it was 80.9 µM. The IC50 in [7] came out at 5.07 µM; in data set [9], 9.35 µM; in data set [10] it was 67.6 µM; in data set [11], 3.72 µM; in data set [12], 0.72 µM. In data set [8], the IC50 at 48 h is 1.82 µM.
